pKd: −log10 of the molar value. Several values for one entry are separate records, joined by “and”; a condition that tells them apart may be missing. Equal values may be shown once. Read-outs that look alike come from different tables or passages of the source. Bridge positions count the residues as written; N and C are the ends. Square brackets hold non-standard residues; d marks the D form. Peptide text beside a SMILES is read from it. R8 = C=CCCCCCC[C@@](C)(N)C(=O)O; Cba = N[C@@H](CC1CCC1)C(=O)O; S5 = C=CCCC[C@](C)(N)C(=O)O
Columns and labels:
human Mdm2 1–125 = target: T1, human Mdm2 1–125 (Homo sapiens, UniProt Q00987); experiment: Mdm2 binding assay (competitive fluorescence anisotropy/polarization); settings: for Kd: competitive fluorescence polarization, read-out: Mdm2 (nM), Mdm2 binding (Kd)
T1 construct: GST (N); His6 (internal); TEV cleavage site ENLYFQG (internal); made in house; host or cells: Escherichia coli BL21 (DE3) Rosetta T1R
T1 sequence (Q00987 with tags, fused parts or gaps): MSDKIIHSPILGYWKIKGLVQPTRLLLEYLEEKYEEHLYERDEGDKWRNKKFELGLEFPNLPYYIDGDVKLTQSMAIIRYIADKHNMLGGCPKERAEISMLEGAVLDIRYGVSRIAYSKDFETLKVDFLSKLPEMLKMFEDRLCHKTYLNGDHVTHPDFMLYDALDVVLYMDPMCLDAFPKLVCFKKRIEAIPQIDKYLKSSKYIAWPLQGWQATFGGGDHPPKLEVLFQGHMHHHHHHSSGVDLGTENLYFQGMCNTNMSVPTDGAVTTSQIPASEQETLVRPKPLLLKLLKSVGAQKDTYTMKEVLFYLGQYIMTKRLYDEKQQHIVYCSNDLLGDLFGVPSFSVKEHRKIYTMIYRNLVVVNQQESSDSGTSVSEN
Description: The TEV (tobacco etch virus) cleavage site was changed from ENLYFQS to ENLYFQG to give a fusion protein with the following sequence:
Titrations were carried out with the concentration of Mdm2 held constant at 250 nM and the labeled peptide at 50 nM. The competing molecules were then titrated against the complex of the FAM-labeled peptide and protein. Apparent Kd values were determined by fitting the experimental data to the equations shown below:(2) r=r0+(rb−r0)×2(d^2−3e)cos(θ/3)−9/3Kd1+2(d^2−3e)cos(θ/3)−dd=Kd1+Kd2+[L]st+[L]t−[P]te=([L]t−[P]t)Kd1+([L]st−[P]t)Kd2+Kd1Kd2f=−Kd1Kd2[P]tθ=arcos[−2d^3+9de−27f/2(d^2−3e)^3] where [L]st and [L]t denote labeled ligand and total unlabeled ligand input concentrations, respectively. Kd2 is the dissociation constant of the interaction between the unlabeled ligand and the protein. In all competition experiments, it was assumed that [P]t > [L]st, otherwise considerable amounts of free labeled ligand would always be present and would interfere with measurements. Kd1 is the apparent Kd for the labeled peptide used and was experimentally determined as described in the previous paragraph. The FAM-labeled peptide was dissolved in dimethyl sulfoxide (DMSO) at 1 mM and diluted into the experimental buffer. Readings were carried out with an Envision Multilabel Reader (PerkinElmer). Experiments were carried out in PBS (2.7 mM KCl, 137mM NaCl, 10 mM Na2HPO4, and 2 mM KH2PO4 (pH 7.4)) and 0.1% Tween 20 buffer. All titrations were carried out in triplicate. Curve-fitting was carried out using Prism 4.0 (GraphPad). […] Negative control titrations of the ligands under investigation were also carried out with the fluorescently labeled peptide (in the absence of Mdm2) to ensure no interactions were occurring between the ligands and the FAM-labeled peptide.

[1] = test system: p53 responsive β-lactamase reporter in HCT116 cells; experiment: p53 beta-lactamase reporter gene cellular functional assay; assay type: cell-based; settings: p53 reporter assay, HCT116, read-out: Cellular (µM), cellular activity (EC50)
Description: HCT116 cells were stably transfected with a p53 responsive β-lactamase reporter and were seeded into a 384-well plate at a density of 8000 cells per well. Cells were maintained in McCoy’s 5A Medium with 10% fetal bovine serum (FBS), Blasticidin, and Penicillin/Streptomycin. The cells were incubated overnight, followed by removal of cell growth media and replacement with Opti-MEM either containing 0% FBS or 10% FBS. […] The final working concentration of DMSO was 0.5%. β-lactamase activity was detected using the ToxBLAzer Dual Screen (Invitrogen), as per the manufacturer’s instructions. Measurements were made using the Envision multiplate reader (Perkin–Elmer).

[2] = Circular dichroism (CD) α-helicity; assay type: physicochemical; settings: for Helicity (%): CD of free peptide, 25 °C, 1 mM Hepes pH 7.4, 5% methanol
Description: A total of 5 µL of the 10 mM stock peptide was mixed with 45 µL of 100% methanol, and dried for 2 h in the SpeedVac concentrator (Thermo Scientific). The dried peptide was reconstituted in a buffer (1 mM Hepes pH 7.4 and 5% methanol) to a concentration of 1 mM. The peptide sample was placed in a quartz cuvette with a path length of 0.2 cm. The peptide concentration was determined by the absorbance of the peptide at […]. The CD spectrum was recorded from 300 to 190 nm using the Chirascan-plus qCD machine (Applied Photophysics, Surrey, UK), at 25 °C. All experiments were done in duplicates. The CD spectrum was converted to mean residue ellipticity, before deconvolution and estimation of the secondary structure components of the peptide using the CDNN software (distributed by Applied Photophysics).

Row | Structure (SMILES) | Kd (human Mdm2 1–125; Table 1) [nM] | EC50 ([1]; Table 1) [µM] | Helicity (%) ([2]; Table 1) | Kd (human Mdm2 1–125; Table 2) [nM] | EC50 ([1]; Table 2) [µM] | Helicity (%) ([2]; Table 2) | α-helicity by CD ([2]; listed as Pro^9) | pKd (human Mdm2 1–125)
1 | CC(=O)N[C@@H](CC(C)C)C(=O)N[C@H](C(=O)N[C@@H](C)C(=O)N[C@]1(C)CCCCCCC=CCCC[C@@](C)(C(=O)N[C@@H](CO)C(=O)N[C@@H](C)C(=O)N[C@@H](C)C(N)=O)NC(=O)[C@H](CC2CCC2)NC(=O)[C@H](CC(C)C)NC(=O)[C@H](CCC(N)=O)NC(=O)[C@H](Cc2c[nH]c3ccccc23)NC(=O)[C@H](Cc2ccc(O)cc2)NC(=O)[C@H](CCC(=O)O)NC1=O)[C@@H](C)O [Peptide F3A] (Ac-LTA[R8]EYWQL[Cba][S5]SAA-NH2; staple 4-11) | 3600 | 37 | 48.4 |  |  |  |  | 
2 | CC(=O)N[C@@H](C)C(=O)N[C@H](C(=O)N[C@@H](Cc1ccccc1)C(=O)N[C@]1(C)CCCCCCC=CCCC[C@@](C)(C(=O)N[C@@H](CO)C(=O)N[C@@H](C)C(=O)N[C@@H](C)C(N)=O)NC(=O)[C@H](CC2CCC2)NC(=O)[C@H](CC(C)C)NC(=O)[C@H](CCC(N)=O)NC(=O)[C@H](Cc2c[nH]c3ccccc23)NC(=O)[C@H](Cc2ccc(O)cc2)NC(=O)[C@H](CCC(=O)O)NC1=O)[C@@H](C)O [Peptide L1A] (Ac-ATF[R8]EYWQL[Cba][S5]SAA-NH2; staple 4-11) | 17.6 | 0.5 | 53.3 |  |  |  |  | 
3 | CC(=O)N[C@@H](CCCCN=[N+]=[N-])C(=O)NCCC(=O)NCC(=O)N[C@H](C(=O)N[C@@H](Cc1ccccc1)C(=O)N[C@]1(C)CCCCCCC=CCCC[C@@](C)(C(=O)N[C@@H](CO)C(=O)N[C@@H](C)C(=O)N[C@@H](C)C(N)=O)NC(=O)[C@H](CC2CCC2)NC(=O)[C@H](CCC(N)=O)NC(=O)[C@H](C)NC(=O)[C@H](Cc2c[nH]c3ccccc23)NC(=O)[C@H](Cc2ccc(O)cc2)NC(=O)[C@H](CCC(=O)O)NC1=O)[C@@H](C)O [Peptide L1G] |  |  |  | 22.1 | 1.6 | 44.6 |  | 
4 | CC(=O)N[C@@H](CCCCN=[N+]=[N-])C(=O)NCCC(=O)N1CCC[C@H]1C(=O)N[C@H](C(=O)N[C@@H](Cc1ccccc1)C(=O)N[C@]1(C)CCCCCCC=CCCC[C@@](C)(C(=O)N[C@@H](CO)C(=O)N[C@@H](C)C(=O)N[C@@H](C)C(N)=O)NC(=O)[C@H](CC2CCC2)NC(=O)[C@H](CCC(N)=O)NC(=O)[C@H](C)NC(=O)[C@H](Cc2c[nH]c3ccccc23)NC(=O)[C@H](Cc2ccc(O)cc2)NC(=O)[C@H](CCC(=O)O)NC1=O)[C@@H](C)O [Peptide L1P] |  |  |  | 21.9 | 0.75 | 41.6 |  | 
5 | CC(=O)N[C@@H](CC(C)C)C(=O)N[C@H](C(=O)N[C@@H](Cc1ccccc1)C(=O)N[C@]1(C)CCCCCCC=CCCC[C@@](C)(C(=O)N[C@@H](CO)C(=O)N[C@@H](C)C(=O)N[C@@H](C)C(N)=O)NC(=O)[C@H](CC2CCC2)NC(=O)[C@H](C)NC(=O)[C@H](CCC(N)=O)NC(=O)[C@H](Cc2c[nH]c3ccccc23)NC(=O)[C@H](Cc2ccc(O)cc2)NC(=O)[C@H](CCC(=O)O)NC1=O)[C@@H](C)O [Peptide L9A] (Ac-LTF[R8]EYWQA[Cba][S5]SAA-NH2; staple 4-11) | 12 | 0.16 | 48.7 |  |  |  |  | 
6 | CC(=O)N[C@@H](CC(C)C)C(=O)N[C@H](C(=O)N[C@@H](Cc1ccccc1)C(=O)N[C@]1(C)CCCCCCC=CCCC[C@@](C)(C(=O)N[C@@H](CO)C(=O)N[C@@H](C)C(=O)N[C@@H](C)C(N)=O)NC(=O)[C@H](CC2CCC2)NC(=O)[C@H](CC(C)C)NC(=O)[C@H](C)NC(=O)[C@H](Cc2c[nH]c3ccccc23)NC(=O)[C@H](Cc2ccc(O)cc2)NC(=O)[C@H](CCC(=O)O)NC1=O)[C@@H](C)O [Peptide Q8A] | 26.5 | 0.1 | 33.4 |  |  |  |  | 
7 | CC(=O)N[C@@H](CCCCN=[N+]=[N-])C(=O)NCCC(=O)N[C@@H](CC(C)C)C(=O)N[C@H](C(=O)N[C@@H](Cc1ccccc1)C(=O)N[C@]1(C)CCCCCCC=CCCC[C@@](C)(C(=O)N[C@@H](CO)C(=O)N[C@@H](C)C(=O)N[C@@H](C)C(N)=O)NC(=O)[C@H](CC2CCC2)NC(=O)CNC(=O)[C@H](C)NC(=O)[C@H](Cc2c[nH]c3ccccc23)NC(=O)[C@H](Cc2ccc(O)cc2)NC(=O)[C@H](CCC(=O)O)NC1=O)[C@@H](C)O [Peptide Q9G] |  |  |  | 42 | 0.68 | 38.8 |  | 
8 | CC(=O)N[C@@H](CCCCN=[N+]=[N-])C(=O)NCCC(=O)N[C@@H](CC(C)C)C(=O)N[C@H](C(=O)N[C@@H](Cc1ccccc1)C(=O)N[C@]1(C)CCCCCCC=CCCC[C@@](C)(C(=O)N[C@@H](CO)C(=O)N[C@@H](C)C(=O)N[C@@H](C)C(N)=O)NC(=O)[C@H](CC2CCC2)NC(=O)[C@@H]2CCCN2C(=O)[C@H](C)NC(=O)[C@H](Cc2c[nH]c3ccccc23)NC(=O)[C@H](Cc2ccc(O)cc2)NC(=O)[C@H](CCC(=O)O)NC1=O)[C@@H](C)O [Peptide Q9P] |  |  |  | 77.1 | 3.1 | 27.4 | < 30% and 27.4% | 
9 | CC(=O)N[C@@H](CC(C)C)C(=O)N[C@H](C(=O)N[C@@H](Cc1ccccc1)C(=O)N[C@]1(C)CCCCCCC=CCCC[C@@](C)(C(=O)N[C@@H](C)C(=O)N[C@@H](C)C(=O)N[C@@H](C)C(N)=O)NC(=O)[C@H](CC2CCC2)NC(=O)[C@H](CC(C)C)NC(=O)[C@H](CCC(N)=O)NC(=O)[C@H](Cc2c[nH]c3ccccc23)NC(=O)[C@H](Cc2ccc(O)cc2)NC(=O)[C@H](CCC(=O)O)NC1=O)[C@@H](C)O [Peptide S12A] (Ac-LTF[R8]EYWQL[Cba][S5]AAA-NH2; staple 4-11) | 20.4 | 0.35 | 36.5 |  |  |  |  | 
10 | CC(=O)N[C@@H](CCCCN=[N+]=[N-])C(=O)NCCC(=O)N[C@@H](CC(C)C)C(=O)N[C@H](C(=O)N[C@@H](Cc1ccccc1)C(=O)N[C@]1(C)CCCCCCC=CCCC[C@@](C)(C(=O)NCC(=O)N[C@@H](C)C(=O)N[C@@H](C)C(N)=O)NC(=O)[C@H](CC2CCC2)NC(=O)[C@H](CCC(N)=O)NC(=O)[C@H](C)NC(=O)[C@H](Cc2c[nH]c3ccccc23)NC(=O)[C@H](Cc2ccc(O)cc2)NC(=O)[C@H](CCC(=O)O)NC1=O)[C@@H](C)O [Peptide S12G] |  |  |  |  | 0.65 | 46.5 |  | 7.72
11 | CC(=O)N[C@@H](CCCCN=[N+]=[N-])C(=O)NCCC(=O)N[C@@H](CC(C)C)C(=O)N[C@H](C(=O)N[C@@H](Cc1ccccc1)C(=O)N[C@]1(C)CCCCCCC=CCCC[C@@](C)(C(=O)N2CCC[C@H]2C(=O)N[C@@H](C)C(=O)N[C@@H](C)C(N)=O)NC(=O)[C@H](CC2CCC2)NC(=O)[C@H](CCC(N)=O)NC(=O)[C@H](C)NC(=O)[C@H](Cc2c[nH]c3ccccc23)NC(=O)[C@H](Cc2ccc(O)cc2)NC(=O)[C@H](CCC(=O)O)NC1=O)[C@@H](C)O [Peptide S12P] |  |  |  | 45.7 | 3.7 | 30.8 |  | 
12 | CC(=O)N[C@@H](CC(C)C)C(=O)N[C@@H](C)C(=O)N[C@@H](Cc1ccccc1)C(=O)N[C@]1(C)CCCCCCC=CCCC[C@@](C)(C(=O)N[C@@H](CO)C(=O)N[C@@H](C)C(=O)N[C@@H](C)C(N)=O)NC(=O)[C@H](CC2CCC2)NC(=O)[C@H](CC(C)C)NC(=O)[C@H](CCC(N)=O)NC(=O)[C@H](Cc2c[nH]c3ccccc23)NC(=O)[C@H](Cc2ccc(O)cc2)NC(=O)[C@H](CCC(=O)O)NC1=O [Peptide T2A] (Ac-LAF[R8]EYWQL[Cba][S5]SAA-NH2; staple 4-11) | 21.3 | 1 | 36.2 |  |  |  |  | 
